According to patent US20250122218A1, “MODULATORS OF CYSTIC FIBROSIS TRANSMEMBRANE CONDUCTANCE REGULATOR” (Vertex Pharmaceuticals Incorporated, priority 2022, published 2025):

Each compound was assayed against T1, CFTR in F508del/MF-HBE cells (Homo sapiens, UniProt P13569, DEL508-508) (assay: Ussing chamber assay of CFTR-mediated short-circuit currents (identification of potentiator compounds)). Conditions: potentiator incubated 18-24 hours at 37° C. in combination with 10 μM corrector, in the presence of 20% human serum, CFTR-mediated ISC.
T1 construct: human bronchial epithelial (HBE) cells derived from CF subjects heterozygous for F508del and a minimal function CFTR mutation; endogenous in cells; host or cells: primary human bronchial epithelial cells from CF subjects (F508del/MF-HBE)
T1 sequence (P13569 with tags, fused parts or gaps DEL508-508): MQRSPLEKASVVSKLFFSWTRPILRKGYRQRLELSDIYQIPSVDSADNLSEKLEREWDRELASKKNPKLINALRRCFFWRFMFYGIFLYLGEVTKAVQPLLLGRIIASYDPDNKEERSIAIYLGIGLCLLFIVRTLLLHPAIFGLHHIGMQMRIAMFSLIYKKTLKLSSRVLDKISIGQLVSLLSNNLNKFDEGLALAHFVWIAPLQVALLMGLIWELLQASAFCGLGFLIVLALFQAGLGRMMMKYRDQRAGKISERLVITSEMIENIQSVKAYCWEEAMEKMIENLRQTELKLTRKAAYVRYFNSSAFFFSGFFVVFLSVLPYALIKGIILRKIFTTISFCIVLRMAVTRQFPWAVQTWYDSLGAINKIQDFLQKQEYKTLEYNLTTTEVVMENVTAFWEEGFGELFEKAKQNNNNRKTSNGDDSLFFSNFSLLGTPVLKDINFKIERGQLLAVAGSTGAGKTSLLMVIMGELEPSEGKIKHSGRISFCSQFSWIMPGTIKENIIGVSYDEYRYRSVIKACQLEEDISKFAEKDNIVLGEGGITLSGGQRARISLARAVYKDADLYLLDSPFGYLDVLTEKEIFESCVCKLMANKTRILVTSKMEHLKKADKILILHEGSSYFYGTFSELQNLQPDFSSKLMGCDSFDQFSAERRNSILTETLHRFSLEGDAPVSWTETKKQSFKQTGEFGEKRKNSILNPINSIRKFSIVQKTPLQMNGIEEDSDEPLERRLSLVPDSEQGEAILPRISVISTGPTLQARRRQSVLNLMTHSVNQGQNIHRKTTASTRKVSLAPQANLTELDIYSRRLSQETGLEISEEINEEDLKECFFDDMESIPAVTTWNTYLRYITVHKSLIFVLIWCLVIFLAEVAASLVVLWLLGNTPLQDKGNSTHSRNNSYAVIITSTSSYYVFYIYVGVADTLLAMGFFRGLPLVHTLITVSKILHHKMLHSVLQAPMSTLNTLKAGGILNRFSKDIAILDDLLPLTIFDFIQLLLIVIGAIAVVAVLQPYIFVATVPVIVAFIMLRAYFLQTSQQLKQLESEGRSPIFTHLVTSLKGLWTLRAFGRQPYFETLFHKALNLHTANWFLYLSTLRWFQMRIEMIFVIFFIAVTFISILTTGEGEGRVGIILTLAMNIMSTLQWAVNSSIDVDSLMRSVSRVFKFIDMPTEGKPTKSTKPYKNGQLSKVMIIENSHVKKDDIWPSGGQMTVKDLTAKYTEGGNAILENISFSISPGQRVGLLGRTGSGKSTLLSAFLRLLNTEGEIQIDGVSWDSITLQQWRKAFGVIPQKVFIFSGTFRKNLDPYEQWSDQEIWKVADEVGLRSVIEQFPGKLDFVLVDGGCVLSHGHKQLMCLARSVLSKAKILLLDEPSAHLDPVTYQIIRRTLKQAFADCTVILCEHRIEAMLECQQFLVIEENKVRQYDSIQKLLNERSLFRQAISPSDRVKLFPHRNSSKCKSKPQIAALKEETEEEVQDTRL
Format: cell-based
In short: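 Short-circuit current was measured in Ussing chambers at 37° C, Vhold 0 mV, 30 μM apical amiloride. CFTR current was defined as the forskolin (20 μM) response relative to the current remaining after BPO/GlyH-101/inhibitor 172 (20 μM each). Before recording, cells had 18-24 h exposure to test potentiators with 10 μM corrector compound in 20% human serum.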

Row | EC50 [nM] | Compound
1 | < 500 | Nc1cc(C(F)(F)F)c2nc1-c1nnc(o1)C(O)(C(F)(F)F)CCCCN(Cc1ccccc1)C(=O)C2 (stereo not drawn) [Compound 51, 17-amino-11-benzyl-6-hydroxy-6,15-bis(trifluoromethyl)-19-oxa-3,4,11,18-tetrazatricyclo[12.3.1.12,5]nonadeca-1(18),2,4,14,16-pentaen-12-one]
2 | < 500 | Nc1cc(C(F)(F)F)c2nc1-c1nnc(o1)[C@@](O)(C(F)(F)F)CCCCCN(Cc1ccc3c(c1)OC(F)(F)O3)C2=O [Compound 101, (6R)-Amino-12-[(2,2-difluoro-1,3-benzodioxol-5-yl)methyl]-6-hydroxy-6,15-bis (trifluoromethyl)-19-oxa-3,4,12,18-tetrazatricyclo [12.3.1.12,5] nonadeca-1(18),2,4,14,1 6-pentaen-13-one]
3 | < 500 | Nc1cc(C(F)(F)F)c2nc1-c1nnc(o1)C(O)(C(F)(F)F)CCCCN(Cc1ccccc1)C2=O (single isomer, unassigned) [Compound 239, 16-amino-11-benzyl-6-hydroxy-6,14-bis(trifluoromethyl)-18-oxa-3,4,11,17-tetrazatricyclo [11.3.1.12,5] octadeca-1(17),2,4,13,15-pentaen-12-one]
4 | < 500 | Nc1cc(C(F)(F)F)c2nc1-c1nnc(o1)[C@@](O)(C(F)(F)F)CCCCCN(Cc1ccccc1C(F)(F)F)C2=O [Compound 156, (6R)-17-amino-6-hydroxy-6,15-bis (trifluoromethyl)-12-[[2-(trifluoromethyl)phenyl]methyl]-19-oxa-3,4,12,18-tetrazatricyclo [12.3.1.12,5] nonadeca-1(18),2,4,14,1 6-pentaen-13-one]
5 | < 500 | CC1(N2CCCCC[C@](O)(C(F)(F)F)C3=NN=C(O3)c3nc(c(C(F)(F)F)cc3N)C2=O)CC1 [Compound 94, (6R)-17-Amino-6-hydroxy-12-(1-methylcyclopropyl)-6,15-bis (trifluoromethyl)-19-oxa-3,4,12,18-tetrazatricyclo [12.3.1.12,5] nonadeca-1(18),2,4,14,1 6-pentaen-13-one]
6 | < 500 | Nc1cc(C(F)(F)F)c2nc1-c1nnc(o1)[C@@](O)(C(F)(F)F)CCCCCN(Cc1ccc(OCC(F)(F)F)cc1)C2=O [Compound 181, (6R)-17-amino-6-hydroxy-12-[[4-(2,2,2-trifluoroethoxy)phenyl]methyl]-6,15-bis (trifluoromethyl)-19-oxa-3,4,12,18-tetrazatricyclo [12.3.1.12,5] nonadeca-1(18),2,4,14,1 6-pentaen-13-one]
7 | < 500 | Nc1cc(C(F)(F)F)c2nc1-c1nnc(o1)[C@@](O)(C(F)(F)F)CCCCCN(Cc1cccc(C(F)(F)F)c1)C2=O [Compound 182, (6R)-17-amino-6-hydroxy-6,15-bis (trifluoromethyl)-12-[[3-(trifluoromethyl)phenyl]methyl]-19-oxa-3,4,12,18-tetrazatricyclo [12.3.1.12,5] nonadeca-1(18),2,4,14,1 6-pentaen-13-one]
8 | < 500 | CC1CCCCCCC(O)(C(F)(F)F)C2=NN=C(O2)c2nc1c(C(F)(F)F)cc2N (single isomer, unassigned) [Compound 17, 17-amino-13-methyl-6,15-bis(trifluoromethyl)-19-oxa-3,4,18-triazatricyclo[12.3.1.12,5]nonadeca-1(18),2,4,14,16-pentaen-6-ol]
9 | < 500 | Nc1cc(C(F)(F)F)c2nc1-c1nnc(o1)[C@@](O)(C(F)(F)F)CCCCCN(Cc1ccc(OC(F)F)cc1)C2=O [Compound 266, (6R)-17-amino-12-[[4-(difluoromethoxy)phenyl]methyl]-6-hydroxy-6,15-bis(trifluoromethyl)-19-oxa-3,4,12,18-tetrazatricyclo [12.3.1.12,5] nonadeca-1(18),2,4,14,16-pentaen-13-one]
10 | < 500 | CCCc1ccccc1CN1CCCCC[C@](O)(C(F)(F)F)C2=NN=C(O2)c2nc(c(C(F)(F)F)cc2N)C1=O [Compound 168, (6R)-17-amino-6-hydroxy-12-[(2-propylphenyl)methyl]-6,15-bis (trifluoromethyl)-19-oxa-3,4,12,18-tetrazatricyclo [12.3.1.12,5] nonadeca-1(18),2,4,14,1 6-pentaen-13-one]
11 | < 500 | CC1CCCCCCC(O)(C(F)(F)F)C2=NN=C(O2)c2nc1c(C(F)(F)F)cc2N (single isomer, unassigned) [Compound 18, 17-amino-13-methyl-6,15-bis(trifluoromethyl)-19-oxa-3,4,18-triazatricyclo[12.3.1.12,5]nonadeca-1(18),2,4,14,16-pentaen-6-ol]
12 | < 500 | COC1CCCCCCC(O)(C(F)(F)F)C2=NN=C(O2)c2nc1c(C(F)(F)F)cc2N (single isomer, unassigned) [Compound 13, 17-amino-13-methoxy-6,15-bis(trifluoromethyl)-19-oxa-3,4,18-triazatricyclo[12.3.1.12,5]nonadeca-1(18),2,4,14,16-pentaen-6-ol]
13 | < 500 | Nc1cc(C(F)(F)F)c2nc1-c1nnc(o1)[C@@](O)(C(F)(F)F)CCCCCN(Cc1cc(F)cc(Cl)c1)C2=O [Compound 257, (6R)-17-amino-12-[(3-chloro-5-fluoro-phenyl)methyl]-6-hydroxy-6,15-bis(trifluoromethyl)-19-oxa-3,4,12,18-tetrazatricyclo [12.3.1.12,5] nonadeca-1(18),2,4,14,16-pentaen-13-one]
14 | < 500 | Nc1cc(C(F)(F)F)c2nc1-c1nnc(o1)[C@@](O)(C(F)(F)F)CCCCCN(C13CC(C1)C3)C2=O [Compound 86, (6R)-17-Amino-12-(1-bicyclo[1.1.1]pentanyl)-6-hydroxy-6,15-bis (trifluoromethyl)-19-oxa-3,4,12,18-tetrazatricyclo [12.3.1.12,5] nonadeca-1(18),2,4,14,1 6-pentaen-13-one]
15 | > 1000 | CC(=O)N1CCCCCC(O)(C(F)(F)F)C2=NN=C(O2)c2nc(c(C(F)(F)F)cc2N)C1 (single isomer, unassigned) [Compound 21, 1-[17-amino-6-hydroxy-6,15-bis(trifluoromethyl)-19-oxa-3,4,12,18-tetrazatricyclo[12.3.1.12,5]nonadeca-1(18),2,4,14,16-pentaen-12-yl]ethanone]
16 | < 500 | CC1(C)CCC2CCCC[C@](O)(C(F)(F)F)C3=NN=C(O3)c3nc(c(C(F)(F)F)cc3N)C(=O)N21 (single isomer, unassigned) [Compound 115]
17 | < 500 | CC(C)CN1CCCCC(O)(C(F)(F)F)C2=NN=C(O2)c2nc(c(C(F)(F)F)cc2N)C1=O (single isomer, unassigned) [Compound 232, 16-amino-6-hydroxy-11-isobutyl-6,14-bis(trifluoromethyl)-18-oxa-3,4,11,17-tetrazatricyclo [11.3.1.12,5] octadeca-1(17),2,4,13,15-pentaen-12-one]
18 | 500 to 1000 | Nc1cc(C(F)(F)F)c2nc1-c1nnc(o1)C(O)(C(F)(F)F)c1cc(ccc1F)CCCCC2=O (single isomer, unassigned) [Compound 58, 20-amino-8-fluoro-6-hydroxy-6,18-bis(trifluoromethyl)-23-oxa-3,4,21-triazatetracyclo[15.3.1.12,5.17,11]tricosa-1(21),2,4,7(22),8,10,17,19-octaen-16-one]
19 | < 500 | Nc1cc(C(F)(F)F)c2nc1-c1nnc(o1)[C@@](O)(C(F)(F)F)CCCCCN(c1ccccc1)C2=O [Compound 108, (6R)-17-Amino-6-hydroxy-12-phenyl-6,15-bis (trifluorom 19-oxa-ethyl)-3,4,12,18-tetrazatricyclo [12.3.1.12,5] nonadeca-1(18),2,4,14,1 6-pentaen-13-one]
20 | > 1000 | Cc1cnc(CN2CCCCC[C@](O)(C(F)(F)F)C3=NN=C(O3)c3nc(c(C(F)(F)F)cc3N)C2=O)nc1 [Compound 169, (6R)-17-amino-6-hydroxy-12-[(5-methylpyrimidin-2-yl)methyl]-6,15-bis (trifluoromethyl)-19-oxa-3,4,12,18-tetrazatricyclo [12.3.1.12,5] nonadeca-1(18),2,4,14,1 6-pentaen-13-one]
21 | < 500 | Nc1cc(C(F)(F)F)c2nc1-c1nnc(o1)[C@@](O)(C(F)(F)F)CCCCCN(Cc1cccc(C3CC(F)(F)C3)c1)C2=O [Compound 224, (6R)-17-amino-12-[[3-(3,3-difluorocyclobutyl)phenyl]methyl]-6-hydroxy-6,15-bis(trifluoromethyl)-19-oxa-3,4,12,18-tetrazatricyclo [12.3.1.12,5] nonadeca-1(18),2,4,14,16-pentaen-13-one]
22 | < 500 | Nc1cc(C(F)(F)F)c2nc1-c1nnc(o1)[C@@](O)(C(F)(F)F)CCCCCN(Cc1cc(F)cc(C(F)(F)F)c1)C2=O [Compound 258, (6R)-17-amino-12-[[3-fluoro-5-(trifluoromethyl)phenyl]methyl]-6-hydroxy-6,15-bis(trifluoromethyl)-19-oxa-3,4,12,18-tetrazatricyclo [12.3.1.12,5] nonadeca-1(18),2,4,14,16-pentaen-13-one]
23 | < 500 | Nc1cc(C(F)(F)F)c2nc1-c1nnc(o1)[C@@](O)(C(F)(F)F)CCCCCN(CCc1ccccc1)C2=O [Compound 137, (6R)-17-amino-6-hydroxy-12-(2-phenylethyl)-6,15-bis (trifluoromethyl)-19-oxa-3,4,12,18-tetrazatricyclo [12.3.1.12,5] nonadeca-1(18),2,4,14,1 6-pentaen-13-one]
24 | < 500 | CC[C@H](C)N1CCCCC[C@](O)(C(F)(F)F)C2=NN=C(O2)c2nc(c(C(F)(F)F)cc2N)C1=O [Compound 88, (6R)-17-Amino-6-hydroxy-12-[(1S)-1-methylpropyl]-6,15-bis (trifluoromethyl)-19-oxa-3,4,12,18-tetrazatricyclo [12.3.1.12,5] nonadeca-1(18),2,4,14,1 6-pentaen-13-one]
